Laboratory results as given in ChEMBL document CHEMBL1157697, “Novel ester and acid derivatives of the 1,5-diarylpyrrole scaffold as anti-inflammatory and analgesic agents. Synthesis and in vitro and in vivo biological evaluation” (J Med Chem, 2010).
Active and inactive are the calls of the source. No cut-off for these calls is given here.

How the values were obtained:
Mus musculus [1] = organism: Mus musculus; assay: Selectivity index, ratio of IC50 for mouse COX1 to IC50 for mouse COX2
[2] = molecular target: Prostaglandin G/H synthase 1 (Homo sapiens, UniProt P23219); assay: Inhibition of COX1 in human whole blood assessed as thromboxane B2 production by RIA; type: tissue-based
Prostaglandin G/H synthase 1 (Homo sapiens, UniProt P23219), sequence (P23219 whole entry): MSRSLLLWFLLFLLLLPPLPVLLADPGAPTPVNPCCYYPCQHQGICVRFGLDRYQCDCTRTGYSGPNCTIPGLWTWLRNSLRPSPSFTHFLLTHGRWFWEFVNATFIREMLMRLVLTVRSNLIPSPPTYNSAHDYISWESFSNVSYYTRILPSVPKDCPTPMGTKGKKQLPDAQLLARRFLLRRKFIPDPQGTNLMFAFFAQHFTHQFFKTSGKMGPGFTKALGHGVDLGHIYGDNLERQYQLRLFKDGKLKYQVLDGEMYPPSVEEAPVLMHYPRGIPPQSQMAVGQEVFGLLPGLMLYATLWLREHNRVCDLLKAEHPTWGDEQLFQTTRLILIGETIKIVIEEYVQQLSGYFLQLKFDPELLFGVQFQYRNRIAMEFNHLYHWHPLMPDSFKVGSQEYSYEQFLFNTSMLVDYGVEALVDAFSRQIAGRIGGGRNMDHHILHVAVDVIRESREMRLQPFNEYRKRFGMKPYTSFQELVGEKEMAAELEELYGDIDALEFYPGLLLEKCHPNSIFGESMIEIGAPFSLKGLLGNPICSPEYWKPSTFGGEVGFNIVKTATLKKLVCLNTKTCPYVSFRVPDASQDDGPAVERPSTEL

[3] = molecular target: T1, Prostaglandin G/H synthase 2 (Homo sapiens, UniProt P35354); assay: Inhibition of COX2 in human whole blood assessed as inhibition of LPS-induced PGE2 production by RIA; type: tissue-based
T1 sequence (P35354 whole entry): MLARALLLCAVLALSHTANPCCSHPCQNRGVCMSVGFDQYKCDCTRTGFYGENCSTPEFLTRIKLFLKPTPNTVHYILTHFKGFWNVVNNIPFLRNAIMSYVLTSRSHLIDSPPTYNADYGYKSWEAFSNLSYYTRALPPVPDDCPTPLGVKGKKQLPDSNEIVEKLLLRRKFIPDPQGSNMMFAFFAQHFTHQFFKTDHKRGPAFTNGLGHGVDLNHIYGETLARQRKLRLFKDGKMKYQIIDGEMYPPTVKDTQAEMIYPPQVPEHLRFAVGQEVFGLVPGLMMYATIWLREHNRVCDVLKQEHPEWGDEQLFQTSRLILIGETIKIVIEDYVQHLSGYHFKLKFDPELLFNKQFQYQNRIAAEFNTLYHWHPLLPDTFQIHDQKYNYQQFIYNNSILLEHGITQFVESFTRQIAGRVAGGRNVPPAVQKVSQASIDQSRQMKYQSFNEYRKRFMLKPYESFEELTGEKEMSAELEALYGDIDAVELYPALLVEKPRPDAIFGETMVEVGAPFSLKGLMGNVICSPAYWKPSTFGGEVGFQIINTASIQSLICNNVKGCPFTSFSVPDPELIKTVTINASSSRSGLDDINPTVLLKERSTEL

Rattus norvegicus [4] = assay: Antiinflammatory activity against carrageenan-induced paw edema rat inflammatory model assessed as paw pressure at 20 mg/kg, po after 30 mins; type: functional
Rattus norvegicus [5] = assay: Antiinflammatory activity against carrageenan-induced paw edema rat inflammatory model assessed as paw pressure at 20 mg/kg, po after 60 mins; type: functional
Rattus norvegicus [6] = assay: Antiinflammatory activity against carrageenan-induced paw edema rat inflammatory model assessed as paw pressure at 20 mg/kg, po after 120 mins; type: functional
Rattus norvegicus [7] = assay: Antiinflammatory activity against carrageenan-induced paw edema rat inflammatory model assessed as paw volume at 20 mg/kg, po after 60 mins; type: functional
Rattus norvegicus [8] = assay: Antiinflammatory activity against carrageenan-induced paw edema rat inflammatory model assessed as suppression of paw edema at 20 mg/kg, po after 60 mins; type: functional
[9] = Metabolic stability in human liver microsomes at 10 uM; type: ADME, Microsome; conditions: read-out: Stability
[10] = Metabolic stability in human liver microsomes at 0.1 uM; type: ADME, Microsome; conditions: read-out: Stability
[11] = molecular target: T2, Prostaglandin G/H synthase 1 (Mus musculus, UniProt P22437)
T2 sequence (P22437 whole entry): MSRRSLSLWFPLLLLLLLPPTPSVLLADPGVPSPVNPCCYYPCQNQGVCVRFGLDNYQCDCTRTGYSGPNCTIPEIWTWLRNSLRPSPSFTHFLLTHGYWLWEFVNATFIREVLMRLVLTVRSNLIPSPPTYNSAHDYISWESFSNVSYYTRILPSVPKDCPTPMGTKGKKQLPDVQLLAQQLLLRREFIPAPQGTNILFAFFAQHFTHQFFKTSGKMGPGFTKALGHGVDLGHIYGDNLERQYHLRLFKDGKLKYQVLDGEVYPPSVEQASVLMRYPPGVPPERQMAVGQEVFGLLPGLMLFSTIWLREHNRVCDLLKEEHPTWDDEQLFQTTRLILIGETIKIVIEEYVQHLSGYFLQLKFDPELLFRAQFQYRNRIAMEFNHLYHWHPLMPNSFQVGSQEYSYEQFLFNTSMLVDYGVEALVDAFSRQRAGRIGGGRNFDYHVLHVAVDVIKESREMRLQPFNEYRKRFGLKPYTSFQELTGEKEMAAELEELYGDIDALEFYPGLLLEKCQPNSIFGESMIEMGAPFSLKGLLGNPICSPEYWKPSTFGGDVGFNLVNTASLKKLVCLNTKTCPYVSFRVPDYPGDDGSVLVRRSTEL
Description: Inhibition of COX1-dependent PGE2 production in LPS-stimulated mouse J774 cells by RIA

[12] = molecular target: T3, Prostaglandin G/H synthase 2 (Mus musculus, UniProt Q05769)
T3 sequence (Q05769 whole entry): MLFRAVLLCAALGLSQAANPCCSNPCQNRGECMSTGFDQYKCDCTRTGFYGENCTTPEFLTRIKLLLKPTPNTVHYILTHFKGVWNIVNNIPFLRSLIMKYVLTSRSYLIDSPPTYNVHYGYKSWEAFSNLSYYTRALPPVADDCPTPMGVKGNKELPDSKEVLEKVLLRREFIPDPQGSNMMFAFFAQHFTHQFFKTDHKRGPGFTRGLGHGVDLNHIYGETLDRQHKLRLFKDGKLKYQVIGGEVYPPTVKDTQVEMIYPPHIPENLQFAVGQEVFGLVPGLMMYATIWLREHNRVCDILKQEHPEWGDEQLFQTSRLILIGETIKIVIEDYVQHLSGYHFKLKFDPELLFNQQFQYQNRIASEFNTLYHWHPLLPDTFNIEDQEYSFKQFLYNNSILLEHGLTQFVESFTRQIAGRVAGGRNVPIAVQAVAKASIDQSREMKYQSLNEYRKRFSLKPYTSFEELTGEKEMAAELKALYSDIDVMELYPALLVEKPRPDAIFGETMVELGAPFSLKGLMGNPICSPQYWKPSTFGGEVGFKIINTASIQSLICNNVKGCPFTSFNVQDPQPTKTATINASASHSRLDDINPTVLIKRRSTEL
Description: Inhibition of COX2-dependent PGE2 production in LPS-stimulated mouse J774 cells by RIA

Mus musculus [13] = assay: Analgesic activity against acetic acid-induced po dosed mouse abdominal constriction assessed as writhing; conditions: Abdomen
Mus musculus [14] = assay: Analgesic activity against acetic acid-induced mouse abdominal constriction assessed as writhing at 20 mg/kg, po; conditions: Abdomen
Mus musculus [15] = assay: Analgesic activity against acetic acid-induced mouse abdominal constriction assessed as writhing at 10 mg/kg, po; conditions: Abdomen
Rattus norvegicus [16] = organism: Rattus norvegicus; assay: Analgesic activity against zymosan-induced hyperalgesia in rat assessed maximum effect measured up to 2 hrs
Rattus norvegicus [17] = organism: Rattus norvegicus; assay: Analgesic activity against zymosan-induced hyperalgesia in rat assessed maximum effect measured up to 6 hrs
Rattus norvegicus [18] = assay: Antiinflammatory activity against carrageenan-induced paw edema rat inflammatory model assessed as paw volume at 10 mg/kg, po after 60 mins

SMILES | Ratio IC50 (Mus musculus [1]) | IC50 [2] | IC50 [3] | Activity (Rattus norvegicus [4]) | Activity (Rattus norvegicus [5]) | Activity (Rattus norvegicus [6]) | Activity (Rattus norvegicus [7]) | Activity (Rattus norvegicus [8]) | remaining at 10 µM [9] | remaining at 0.1 µM [10] | IC50 [11] | IC50 [12] | Activity (Mus musculus [13]) | Activity (Mus musculus [14]) | Activity (Mus musculus [15]) | Activity (Rattus norvegicus [16]) | Activity (Rattus norvegicus [17]) | Activity (Rattus norvegicus [18])
Cc1c(CC(=O)O)cc(-c2ccc(S(C)(=O)=O)cc2)n1-c1cccc(F)c1 | > 3500 | 125000 nM | 17000 nM | 54.8 g | 55.2 g | 43.1 g | 1.35 mL | 93.6% | 100% | 100% | > 100000 nM | 28 nM | Dose-dependent effect | Active |  |  |  | 
CCOC(=O)Cc1cc(-c2ccc(S(C)(=O)=O)cc2)n(-c2ccccc2)c1C | > 2500 |  |  |  |  |  |  |  |  |  |  |  |  |  |  |  |  | 
CCCCOC(=O)Cc1cc(-c2ccc(S(C)(=O)=O)cc2)n(-c2cccc(F)c2)c1C | > 4100 |  |  | 49.7 g | 46.9 g | 45.2 g | 1.71 mL | 67.2% | 2% | 0% | > 100000 nM | 24 nM |  |  |  |  |  | 
CCCCOC(=O)Cc1cc(-c2ccc(S(C)(=O)=O)cc2)n(-c2ccccc2)c1C | > 7100 |  |  | 52.5 g | 46.3 g | 42.6 g | 1.68 mL | 66.3% | 3% | 7% | > 100000 nM | 14 nM |  |  |  |  |  | 
CCCCOC(=O)Cc1cc(-c2ccc(S(C)(=O)=O)cc2)n(-c2ccc(OC)cc2)c1C | > 2600 |  |  | 53.4 g | 51.4 g | 50.8 g | 1.45 mL | 89.1% | 2% | 5% | > 100000 nM | 38 nM |  | Active | Active |  |  | 
Cc1c(CC(=O)O)cc(-c2ccc(S(C)(=O)=O)cc2)n1-c1ccccc1 | > 100 | 132000 nM | 7000 nM | 48.6 g | 51.8 g | 41.6 g | 1.86 mL | 42.7% | 97% | 94% |  |  |  |  |  |  |  | 
COc1ccc(-n2c(-c3ccc(S(C)(=O)=O)cc3)cc(CC(=O)OC(C)C)c2C)cc1 | > 4500 |  |  | 51 g | 56.7 g | 41.7 g | 1.41 mL | 77.2% | 1% | 7% | > 100000 nM | 22 nM |  |  |  |  |  | 
COc1ccc(-n2c(-c3ccc(S(C)(=O)=O)cc3)cc(CC(=O)O)c2C)cc1 | > 580 |  |  | 52.3 g | 39.8 g | 36.2 g | 1.81 mL | 50.9% | 84% | 77% | > 100000 nM | 170 nM |  |  |  |  |  | 
Cc1c(CC(=O)O)cc(-c2ccc(S(C)(=O)=O)cc2)n1-c1ccc(F)c(F)c1 | 38 |  |  | 58.3 g | 54.1 g | 48.6 g | 1.42 mL | 90.9% | 100% | 100% | 10000 nM | 260 nM |  | Active |  |  |  | 
Cc1c(CC(=O)OC(C)C)cc(-c2ccc(S(C)(=O)=O)cc2)n1-c1cccc(F)c1 | > 2300 | 24000 nM | 2000 nM | 59.5 g | 57.9 g | 45.2 g | 1.31 mL | 87.2% | 1% | 0% | > 100000 nM | 43 nM | Dose-dependent effect |  |  |  |  | 
Cc1c(CC(=O)OC(C)C)cc(-c2ccc(S(C)(=O)=O)cc2)n1-c1ccc(F)c(F)c1 | > 4700 |  |  | 64.8 g | 52.3 g | 58.3 g | 1.39 mL | 89% | 13% | 0% | > 100000 nM | 21 nM |  |  |  |  |  | 
Cc1ccc(-c2cc(C(F)(F)F)nn2-c2ccc(S(N)(=O)=O)cc2)cc1 [CELECOXIB] |  |  |  | 56.5 g | 58.2 g | 55.2 g |  | 95.5% |  |  |  |  |  |  |  | 30% | 35% | 1.33 mL
CCCCOC(=O)Cc1cc(-c2ccc(S(C)(=O)=O)cc2)n(-c2ccc(F)c(F)c2)c1C | > 3300 |  |  | 52.7 g | 59.2 g | 56.6 g | 1.52 mL | 73.6% | 15% | 2% | > 100000 nM | 30 nM |  | Active |  |  |  | 
